“And” between values parts separate entries of the source, which are not always exact repeats. Equal values may be shown once. “Also recorded” adds a separate entry of the source. Read-outs that look alike come from different tables or passages of the source.
Tests used:
[1] = target: T1, PKD1 (Homo sapiens, UniProt Q15139); assay: Cellular inhibition of PMA-induced PKD1 S916 autophosphorylation in LNCaP cells (Western blot densitometry); type: cell-based; design: endogenous in cells; host or cells: LNCaP prostate cancer cells; conditions: for IC50: PKD1 autophosphorylation at S916 in LNCaP cells
T1 sequence (Q15139 1-912): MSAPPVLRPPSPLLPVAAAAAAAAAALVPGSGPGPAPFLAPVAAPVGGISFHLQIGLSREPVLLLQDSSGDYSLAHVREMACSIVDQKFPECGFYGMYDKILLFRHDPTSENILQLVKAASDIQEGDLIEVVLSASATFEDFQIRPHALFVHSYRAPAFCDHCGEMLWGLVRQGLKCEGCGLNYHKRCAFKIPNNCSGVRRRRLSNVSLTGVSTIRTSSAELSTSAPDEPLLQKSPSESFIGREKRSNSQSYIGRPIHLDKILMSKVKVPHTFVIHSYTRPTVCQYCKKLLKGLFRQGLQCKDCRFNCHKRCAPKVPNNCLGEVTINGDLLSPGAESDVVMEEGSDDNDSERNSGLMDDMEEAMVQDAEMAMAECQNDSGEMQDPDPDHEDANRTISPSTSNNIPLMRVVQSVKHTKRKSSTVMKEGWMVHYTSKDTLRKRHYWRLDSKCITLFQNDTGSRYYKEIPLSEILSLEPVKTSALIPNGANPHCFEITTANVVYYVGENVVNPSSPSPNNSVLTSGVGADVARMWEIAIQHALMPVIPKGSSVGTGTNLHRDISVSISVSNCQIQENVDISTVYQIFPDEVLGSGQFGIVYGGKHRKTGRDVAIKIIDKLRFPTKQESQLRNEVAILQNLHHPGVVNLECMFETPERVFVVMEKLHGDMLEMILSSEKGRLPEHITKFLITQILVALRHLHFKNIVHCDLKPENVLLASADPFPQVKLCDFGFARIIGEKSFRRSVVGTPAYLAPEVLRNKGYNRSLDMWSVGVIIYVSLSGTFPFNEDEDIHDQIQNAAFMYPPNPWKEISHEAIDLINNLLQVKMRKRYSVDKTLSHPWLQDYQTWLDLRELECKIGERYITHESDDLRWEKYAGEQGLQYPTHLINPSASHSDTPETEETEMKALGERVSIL
Description: The compound to be tested was dissolved in DMSO at an initial concentration of 10 mM. LNCaP prostate cancer cells were pre-treated with DMSO or increasing concentrations of the compound for 45 min, followed by treatment with or without 100 nM phorbol 12-myristate 13-acetate (PMA), an activator of PKD, for 20 min. The cells were harvested for Western blot analysis.
Briefly, cells were lysed in lysis buffer containing 200 mM Tris-HCl, pH 7.4, 100 μM 4-(2-aminoethyl)benzenesulfonyl fluoride, 1 mM EGTA, and 1% Triton X-100. Protein concentration was determined using the BCA Protein Concentration Assay reagent kit (Pierce). Equal amounts of protein were subjected to SDS-PAGE followed by electrotransfer to nitrocellulose membranes. Membranes were blocked with 5% nonfat milk in Tris-buffered saline and then probed with primary antibodies for p-S916-PKD1 (Millipore), p-S744/748-PKD1 (Cell Signaling Technology), or GAPDH (Enzo), followed by anti-mouse or anti-rabbit secondary antibodies conjugated to horseradish peroxidase (Bio-Rad). The bands were detected by incubating with the enhanced chemiluminescence (ECL) Western blotting detection reagent (Amersham Biosciences) and exposing to X-ray films.

[2] = target: PLK1 (Homo sapiens, UniProt P53350); assay: IMAP PLK1 TR-FRET counter-screen; type: biochemical; conditions: read-out: IC50 PLK1 (Ave ± SD)
Description: (§1) Automated, highthroughput screening (HTS) formatted IMAP-based AKT fluorescent polarization assay (AKT FP), and PLK1 and CAK TR-FRET assays were used to assess the specificity of the PKD analogs as previously described. See Sharlow, E. R., et. al., J. Biol Chem, 283: 33516-33526, (2008). For the PLK2 IMAP TR-FRET assay, PLK2 kinase reactions were generated by the stepwise addition of a 3-fold excess concentration of substrate/ATP (1650 nM/105 μM), analog, and PLK2 enzyme (1.02 milliunits/μL). PLK2 kinase reactions were incubated for 150 min at room temperature and stopped with the addition of an IMAP binding reagent supplemented with terbium. Assay plates were then incubated overnight. Analysis was performed as described in the literature. Id.
(§2) The PLK2 substrate (FAM-[…]) was obtained from Molecular Devices (Sunnyvale, Calif.). H-89 was used as a positive inhibitory control compound in the assays. A 10 point concentration range for each compound to be tested was used to determine IC50 values. The maximum concentration of a particular compound used in this assay was either 50 μM, or 100 μM, depending on the solubility of the individual compounds. Each experiment was assayed in triplicate and data is represented as average IC50±SD. The IC50 determinations for each analog evaluated in the IMAP (PLK2, PLK1, CAK, and AKT) formats were conducted within the linear range of the captured signal readout.

[3] = system: AKT; assay: IMAP-based AKT fluorescent polarization counter-screen; type: biochemical; conditions: read-out: IC50 AKT (Ave ± SD)
Description: as §1, §2

[4] = target: PLK2 (Homo sapiens, UniProt Q9NYY3); assay: PLK2 IMAP TR-FRET counter-screen; type: biochemical; conditions: read-out: IC50 PLK2 (Ave ± SD)
Description: as §1, §2

[5] = target: T1, PKD1; assay: IMAP-FP PKD1 assay; type: biochemical
Source text: See Sharlow, E. R., et. al., J Biol Chem, 283: 33516-33526, (2008). The assay established the concentration of inhibitor that is required to reduce PKD1 activity by 50% (IC50), as shown in Table 2 above.

[6] = target: CAK (CDK7) (Homo sapiens, UniProt P50613); assay: IMAP CAK TR-FRET counter-screen; type: biochemical; conditions: read-out: IC50 CAK(CDK7) (Ave ± SD)
Description: as §1, §2

[7] = target: T2, purified recombinant human PKD1 (Homo sapiens, UniProt Q15139); assay: radiometric PKD kinase activity assay; type: biochemical
T2 sequence (Q15139 1-912): T1 sequence (Q15139 1-912)
Description: The radiometric PKD kinase assay was carried out by co-incubating 0.5 μCi γ-32P-ATP (PerkinElmer, Boston, Mass.), 20 μM ATP, 50 ng purified recombinant human PKD (PKD1, PKD2, PKD3) proteins, and 2.5 μg Syntide-2 (Sigma) in 50 μl kinase buffer that contains 50 mM Tris-HCl, pH 7.5, 4 mM MgCl2, 10 mM β-mercaptoethanol. The reaction was carried out under sub-saturation conditions, such that the initial rate was within linear kinetic range. The reaction mixture was incubated at 30° C. for 10 min, followed by spotting 25 μl of the mix onto a Whatman P81 filter paper (Whatman Inc, Clifton, N.J.). The filter papers were then washed three times in 0.5% phosphoric acid, air-dried, and counted using a Beckman LS6500 multi-purpose scintillation counter (Beckman, Fullerton, Calif.).

[8] = stability in protic solvents; type: physicochemical
[9] = radiometric kinase activity assay, in vitro, read-out: IC50 PKD1
[10] = read-out: IC50 radiometric PKD1

Sequence of PLK2 (Q9NYY3 whole entry, species assumed): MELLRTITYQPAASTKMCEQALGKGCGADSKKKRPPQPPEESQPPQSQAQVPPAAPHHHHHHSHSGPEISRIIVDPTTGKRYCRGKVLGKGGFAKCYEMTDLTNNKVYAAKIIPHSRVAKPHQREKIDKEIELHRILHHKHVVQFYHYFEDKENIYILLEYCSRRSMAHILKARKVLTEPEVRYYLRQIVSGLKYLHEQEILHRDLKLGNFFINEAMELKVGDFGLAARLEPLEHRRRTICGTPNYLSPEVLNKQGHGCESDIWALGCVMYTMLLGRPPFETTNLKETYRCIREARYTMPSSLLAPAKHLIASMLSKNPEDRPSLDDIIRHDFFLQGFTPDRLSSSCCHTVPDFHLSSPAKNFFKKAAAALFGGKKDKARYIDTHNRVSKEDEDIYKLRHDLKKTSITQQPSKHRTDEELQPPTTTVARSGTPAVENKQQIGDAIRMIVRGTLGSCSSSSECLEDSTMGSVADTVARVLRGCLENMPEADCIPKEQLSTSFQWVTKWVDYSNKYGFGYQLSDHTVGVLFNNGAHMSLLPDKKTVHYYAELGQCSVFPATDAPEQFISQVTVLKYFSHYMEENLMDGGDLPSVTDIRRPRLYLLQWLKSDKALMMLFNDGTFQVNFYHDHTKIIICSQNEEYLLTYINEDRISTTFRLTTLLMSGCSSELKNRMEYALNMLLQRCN
Sequence of CAK (CDK7) (P50613 whole entry, species assumed): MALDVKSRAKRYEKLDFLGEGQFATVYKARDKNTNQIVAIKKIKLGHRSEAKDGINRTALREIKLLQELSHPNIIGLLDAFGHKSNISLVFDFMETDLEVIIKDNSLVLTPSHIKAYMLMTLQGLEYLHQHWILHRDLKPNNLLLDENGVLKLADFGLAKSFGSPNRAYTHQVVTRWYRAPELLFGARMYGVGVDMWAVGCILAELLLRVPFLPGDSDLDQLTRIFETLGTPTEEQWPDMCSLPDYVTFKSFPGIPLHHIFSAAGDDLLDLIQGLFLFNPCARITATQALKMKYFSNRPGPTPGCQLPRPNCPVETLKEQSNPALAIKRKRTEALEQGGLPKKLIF
Sequence of CAK (CDK7) (P51946 whole entry partner, species assumed): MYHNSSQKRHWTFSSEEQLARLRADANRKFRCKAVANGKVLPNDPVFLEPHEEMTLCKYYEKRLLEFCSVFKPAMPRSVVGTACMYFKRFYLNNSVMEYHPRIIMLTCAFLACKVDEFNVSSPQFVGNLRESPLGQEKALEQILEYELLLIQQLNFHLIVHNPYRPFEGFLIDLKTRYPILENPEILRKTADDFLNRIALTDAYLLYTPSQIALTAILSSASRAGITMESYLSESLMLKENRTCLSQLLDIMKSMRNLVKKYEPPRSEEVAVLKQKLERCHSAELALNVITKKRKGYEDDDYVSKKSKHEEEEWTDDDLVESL
Sequence of CAK (CDK7) (P51948 whole entry partner, species assumed): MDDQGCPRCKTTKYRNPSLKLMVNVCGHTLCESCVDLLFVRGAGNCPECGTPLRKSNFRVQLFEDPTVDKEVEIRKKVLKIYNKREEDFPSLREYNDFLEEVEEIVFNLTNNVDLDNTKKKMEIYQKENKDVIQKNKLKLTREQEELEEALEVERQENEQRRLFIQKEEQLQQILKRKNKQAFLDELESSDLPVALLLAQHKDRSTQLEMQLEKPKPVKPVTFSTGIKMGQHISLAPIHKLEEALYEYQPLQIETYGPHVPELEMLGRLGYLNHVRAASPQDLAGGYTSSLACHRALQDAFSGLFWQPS
Sequence of PLK1 (P53350 whole entry, species assumed): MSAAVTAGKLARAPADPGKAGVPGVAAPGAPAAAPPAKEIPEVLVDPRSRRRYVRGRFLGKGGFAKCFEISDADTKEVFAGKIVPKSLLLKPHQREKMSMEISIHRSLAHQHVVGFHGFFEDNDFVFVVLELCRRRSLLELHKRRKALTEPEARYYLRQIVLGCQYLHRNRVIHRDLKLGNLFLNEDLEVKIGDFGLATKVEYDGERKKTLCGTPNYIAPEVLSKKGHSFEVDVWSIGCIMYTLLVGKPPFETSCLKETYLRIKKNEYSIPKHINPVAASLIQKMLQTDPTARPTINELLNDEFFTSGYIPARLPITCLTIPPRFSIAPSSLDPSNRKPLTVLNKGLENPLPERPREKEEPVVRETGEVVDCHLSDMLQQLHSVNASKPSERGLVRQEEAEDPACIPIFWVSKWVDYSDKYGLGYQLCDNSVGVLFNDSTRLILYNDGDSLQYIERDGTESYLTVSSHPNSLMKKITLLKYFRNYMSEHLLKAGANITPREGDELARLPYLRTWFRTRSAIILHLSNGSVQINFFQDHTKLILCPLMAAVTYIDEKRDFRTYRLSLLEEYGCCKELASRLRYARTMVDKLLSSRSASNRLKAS

| Structure (SMILES) | IC50 [1] | cellular PKD1 inhibition, in words ([1]; PMA-induced PKD1 autophosphorylation at S916, LNCaP) | IC50 [2] | IC50 [3] | IC50 [4] | IC50 [5] | IC50 [6] | IC50 [7, 9] | cellular IC50 fold lower than CID755673 [1] | fold more potent than CID755673 (in vitro PKD1 IC50) [7] | IC50 [7, 10] | melting point | PKD inhibition, in words [7] | stability in protic solvents [8] |
| --- | --- | --- | --- | --- | --- | --- | --- | --- | --- | --- | --- | --- | --- | --- |
| O=C1NCCCc2c1[nH]c1ccc(O)cc21 [kb-NB123-57, 3,4,5,10-Tetrahydro-7-hydroxy-azepino[3,4-b]indol-1(2H)-one] | > 50 µM | no significant cellular activity; also recorded: weaker inhibition | > 100 µM | > 100 µM | > 100 µM | 2.14 ± 0.12 µM | 39.2 ± 10.2 µM | 0.13 µM |  |  |  |  |  |  |
| O=C1NCCSc2c1sc1ccc(O)cc21 [kb-NB142-70, 3,4-Dihydro-9-hydroxy-[1]benzothieno[2,3-f]-1,4-thiazepin-5(2H)-one] | 2.2 µM |  | 17 ± 7.7 µM | > 100 µM | 39 ± 3.4 µM |  | 12 ± 0.6 µM | 0.0283 ± 0.0023 µM | 5 fold | ~7 fold |  |  |  |  |
| COc1ccc2sc3c(c2c1)SCCNC3=O [kb-NB165-09, 3,4-Dihydro-9-methoxy-[1]benzothieno[2,3-f]-1,4-thiazepin-5(2H)-one] | 3.1 ± 0.5 µM |  | > 50 µM | > 50 µM | > 50 µM |  | 17.1 ± 13.6 µM | 0.0825 ± 0.0046 µM |  |  |  |  |  |  |
| O=C1NCCCSc2c1sc1ccc(O)cc21 [kb-NB165-92, 2,3,4,5-Tetrahydro-10-hydroxybenzo[b]thieno[2,3-f]-1,5-thiazocin-6-one] | 2.6 µM and 2.56 µM |  | 13 ± 7.7 µM | > 50 µM | 28 ± 3.1 µM |  | 11 ± 3.3 µM | 0.111 ± 0.006 µM |  |  |  |  |  |  |
| COc1ccc2sc3c(c2c1)SCCCNC3=O [kb-NB184-02, 2,3,4,5-Tetrahydro-10-methoxybenzo[b]thieno[2,3-f]-1,5-thiazocin-6-one] | 18.6 ± 2 µM |  | > 50 µM | > 100 µM | > 50 µM |  | 9 ± 4.1 µM | 0.193 ± 0.027 µM |  |  | 0.19 ± 0.03 µM |  |  |  |
| COc1ncc2sc3c(c2n1)SCCNC3=O [kmg-NB4-23, 2-Methoxy-7H,8H,9H-1,4-thiazepino[7′,6′-5,4]thiopheno[3,2-d]pyrimidin-6-one] | 6.8 ± 1.3 µM |  | > 100 µM | > 100 µM | > 100 µM |  | > 100 µM | 0.124 µM |  |  | 0.12 ± 0.03 µM | 308 °C (dec.) | potent nanomolar inhibitor |  |
| O=C1NCCSc2c1sc1cnc(O)nc21 [kmg-NB4-69A, 2-Hydroxy-7H,8H,9H-1,4-thiazepino[7′,6′-5,4]thiopheno[3,2-d]pyrimidin-6-one] |  |  |  |  |  |  |  |  |  |  | 25.3 µM |  | only weak inhibitory effect | spontaneously degrade in protic solvents |
| [N-]=[N+]=Nc1ccc2sc3c(c2c1)SCCNC3=O [mcf292-08, 3,4-Dihydro-9-azido-[1]benzothieno[2,3-f]-1,4-thiazepin-5(2H)-one] | 2.2 µM and 2.17 µM |  | > 50 µM | > 50 µM | > 50 µM |  | > 50 µM | 0.0749 µM |  |  | 0.08 ± 0.01 µM | 193 °C (dec.) |  |  |
